Assay results from patent publication US20140296223A1, “METHOD FOR REGULATING SKIN PIGMENTATION” (THE GENERAL HOSPITAL CORPORATION, priority 2011, published 2014).

Columns and labels:
[1] = tested on: Microphthalmia Transcription Factor (MITF); experiment: TRPM1-luciferase reporter screen for MITF antagonists in Skme15 melanoma cells; assay type: cell-based, human; conditions: screen, suppression of TRPM1-luciferase activity, Skme15 cells
Excerpt: In order to carry out a successful MITF antagonist screen, the inventors utilized a TRPM1-luciferase reporter. […] Therefore, the TRPM1-luciferase reporter stably integrated into melanoma cells is effective for the screening assay. The use of melanoma cells, while less perfectly relevant than primary human melanocytes, afforded the advantages of speed and reproducibility for the screen.
In order to engineer a screen which broadly suppress MITF activity either by suppression of MITF expression or by inhibition of MITF activity, the inventors utilized a luciferase reporter containing the promoter of a strong direct transcriptional target of MITF, i.e., TRPM1 gene, the inventors have identified the active ingredients having the ability of inhibiting the expression or activation of Microphthalmia Transcription Factor (MITF) for medical or esthetic benefit. The inventors have previously identified the TRPM1 gene (also called “Melastatin”) as a direct target of MITF, which contains numerous MITF binding sites, and which directly responds in potent fashion to MITF overexpression (Miller A J, Du J, Rowan S, Hershey C L, Widlund H R, Fisher D E: Transcriptional regulation of the melanoma prognostic marker melastatin (TRPM1) by MITF in melanocytes and melanoma, Cancer Res 2004, 64:509-516). TRPM1 expression also correlates closely to MITF expression within human melanoma cell lines, as well as in clinical pigmented lesions (nevi and melanomas).
The TRPM1 promoter was ligated to the luciferase gene and inserted into a retroviral vector as well as a lentiviral vector. The lentiviral vector was used to infect primary human melanocytes, which then was subjected to a primary screen using the Broad Chemical Genetics core screening facility, and its natural products/extracts libraries. As backup, the retroviral vector was used to stably integrate into the genome of melanoma cells, which can be used for the identical small molecule screen. Screen optimization was carried out using forskolin and MSH as positive control small molecules (which upregulate cAMP and MITF expression (D'Orazio J A, Nobuhisa T, Cui R, Arya M, Spry M, Wakamatsu K, Igras V, Kunisada T, Granter S R, Nishimura E K, Ito S, Fisher D E: Topical drug rescue strategy and skin protection based on the role of Mc1r in UV-induced tanning, Nature 2006, 443:340-344)). Small molecules which suppress MSH induced TRPM1-luciferase without altering cell numbers or viability, represent initial “hits” in this screen. Negative control includes a constitutive luciferase vector within the same cells (eg driven by a constitutive promoter such as thymidine kinase promoter), to control for nonspecific inhibitors of basal transcriptional machinery-something which would otherwise be assessed in detail during secondary/tertiary analyses of candidate hits.
The human melanoma cell line Skme15 was utilized due to the advantageous growth properties as well as the inventors' prior experience that Skme15 expresses a typical level of MITF protein. […] Therefore, an integrated TRPM1-luciferase reporter was generated, and the subsequent cells were cloned twice (serially) to assure purity of the reporter cell population. Cells were maintained in drug selection to assure maintenance of the luciferase reporter (when drug was omitted, eventual loss of the luciferase signal was observed). Following re-cloning, distinct isolates were selected for further use on the basis of clonogenic growth on 384 well plates, as required for the small molecule screen. A positive control for suppression of TRPM1-luciferase signal utilized: a lentivirus encoding shRNA against MITF. […] The day-to-day variability in plating efficiency was analyzed, and found very high reproducibility in the line which was selected for further use in the screen.
The screen was carried out with a library from the Broad Institute comprising a mixture of natural products, known bioactives, and additional compounds (a total of about 13,000 compounds). […]

[2] = tested on: Skme15; experiment: Toxicity with fluorescence viability probe (CellTiter-Fluo Cell Viability Assay); assay type: cell-based, human; conditions: composite of the variation between drug-treated and control divided by the standard error
Experimental: Although the shape of the dose-response can vary among hits, the inventors chose to include all candidates which produce dose-dependent effects. The fourth criterion which was determined is the IC50 (described formally as qAC50) which represents the half-maximal suppression dose. Most of the candidate hits resided in the high nanomolar to low micromolar range by this criterion (all of these validation data are listed in Table 1). The fifth criterion was maximal suppression (at any dose), which represented the magnitude of suppression which was attainable regardless of the dose required to achieve it. […] The sixth criterion to be determined is the Log P partition coefficient, which is a predictor of lipophilicity. For this, the inventors have used the method of Ghose and Crippen to calculate the predicted octanol-water partition coefficient (J. Comp. Chem. 9, 80(1988)). While this is only an estimate of potential skin penetration, the analysis was carried out because it helps in prioritizing likelihood of topical effectiveness, in theory. The seventh criterion was an analysis of toxicity utilizing a fluorescence viability probe (CellTiter-Fluo™ Cell Viability Assay (Promega)). Interpretation of this endpoint is complicated by the fact that it represents a composite of the variation between drug-treated and control divided by the standard error The results shown in Table 1 indicate 34 candidate molecules which satisfied all of the criteria outlined above. […] Most of their potencies ranged slightly below or above 1 uM. While the lipophilicity scores remain imperfect predictors of skin penetration capability. However, numbers of >3 can be more likely to penetrate.

Row | Structure (SMILES) | Z-Score [1] | Viability z-score (treated minus control, divided by standard error) [2]
1 | Cc1oc(-c2ccc3c(c2)OCCO3)cc1C(=O)NCC(=O)O [N-[5-(2,3-dihydro-1,4-benzodioxin-6-yl)-2-methyl-3-furoyl]glycine] | −10.0065 | −0.0206
2 | COc1cccc(C(=O)NC(c2ccc(Cl)cc2)c2c(O)ccc3ccccc23)c1 (stereo not drawn) [N-[(4-chlorophenyl)(2-hydroxy-1-naphthyl)methyl]-3-methoxybenzamide] | −11.9861 | −0.1221
3 | O=C(CCSc1nc(-c2ccccc2)cs1)Nc1ccccc1 [N-phenyl-3-[(4-phenyl-1,3-thiazol-2-yl)thio]propanamide] | −10.8255 | −0.2442
4 | O=C(O)COc1cccc(-c2nc3ccccc3s2)c1 [[3-(1,3-benzothiazol-2-yl)phenoxy]acetic acid] | −11.9101 | −0.0206
5 | N#CC(C#N)=C(Nc1ccccc1Cl)SCc1cccc(F)c1 [{[(2-chlorophenyl)amino][(3-fluorobenzyl)thio]methylene}malononitrile] | −10.3064 | −1.5092
6 | N#CC(C#N)=C(Nc1ccc(Br)cc1)SCc1ccc(F)cc1 [{[(4-bromophenyl)amino][(4-fluorobenzyl)thio]methylene}malononitrile] | −9.463 | −1.5092
